This is an account of results in ChEMBL document CHEMBL1142498 (J Med Chem, 2008).

For orientation: IC50 means the concentration needed to halve the response being measured. A word on the Ki: it is the dissociation constant of the complex between target and ligand, obtained from inhibition or displacement. Lower therefore signals a stronger hold on the target.

Assay [1] has as its target T1, 5-hydroxytryptamine receptor 1A (Homo sapiens) (UniProt P08908).
T1 sequence (whole entry): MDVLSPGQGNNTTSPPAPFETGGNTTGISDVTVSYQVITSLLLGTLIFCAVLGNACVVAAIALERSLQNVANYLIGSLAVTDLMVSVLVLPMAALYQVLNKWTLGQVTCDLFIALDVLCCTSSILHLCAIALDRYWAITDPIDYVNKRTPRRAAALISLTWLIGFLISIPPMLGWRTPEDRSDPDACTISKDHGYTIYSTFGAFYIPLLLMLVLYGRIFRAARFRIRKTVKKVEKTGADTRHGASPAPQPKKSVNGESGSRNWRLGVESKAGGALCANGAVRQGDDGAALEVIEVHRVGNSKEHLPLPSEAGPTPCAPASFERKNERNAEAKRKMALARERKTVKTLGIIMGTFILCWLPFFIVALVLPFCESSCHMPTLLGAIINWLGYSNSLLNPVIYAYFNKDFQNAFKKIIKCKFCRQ
Put plainly: Displacement of [3H]8-OH-DPAT from human recombinant 5HT1A receptor expressed in CHO cells at 1uM. It counts as cell-based. In general terms: Loss of bound radioactivity is the signal in a displacement assay; it reports binding, not function.

Assay [2] has as its target T2, 5-hydroxytryptamine receptor 1A (Homo sapiens, UniProt P08908).
T2 sequence (P08908 whole entry): T1 sequence (whole entry)
Description: Activity at human cloned 5HT1A receptor expressed in CHO cells assessed as blockade of 5-HT-stimulated [35S]GTPgammaS binding

Assay [3] addresses Sodium-dependent serotonin transporter (Homo sapiens, UniProt P31645). It counts as cell-based, JAR.
Description: Inhibition of 5-HT transporter-mediated [3H]5HT uptake in human Jar cells
The species entered for the next assay is Rattus norvegicus. The assay is described as follows: Displacement of [3H]prazosin from alpha1 adrenergic receptor in Sprague-Dawley rat cortical membrane at 1 uM.
For assay [4], the target named is Sodium-dependent serotonin transporter (Rattus norvegicus, UniProt P31652).
Chain of Sodium-dependent serotonin transporter (Rattus norvegicus, UniProt P31652) (P31652 whole entry): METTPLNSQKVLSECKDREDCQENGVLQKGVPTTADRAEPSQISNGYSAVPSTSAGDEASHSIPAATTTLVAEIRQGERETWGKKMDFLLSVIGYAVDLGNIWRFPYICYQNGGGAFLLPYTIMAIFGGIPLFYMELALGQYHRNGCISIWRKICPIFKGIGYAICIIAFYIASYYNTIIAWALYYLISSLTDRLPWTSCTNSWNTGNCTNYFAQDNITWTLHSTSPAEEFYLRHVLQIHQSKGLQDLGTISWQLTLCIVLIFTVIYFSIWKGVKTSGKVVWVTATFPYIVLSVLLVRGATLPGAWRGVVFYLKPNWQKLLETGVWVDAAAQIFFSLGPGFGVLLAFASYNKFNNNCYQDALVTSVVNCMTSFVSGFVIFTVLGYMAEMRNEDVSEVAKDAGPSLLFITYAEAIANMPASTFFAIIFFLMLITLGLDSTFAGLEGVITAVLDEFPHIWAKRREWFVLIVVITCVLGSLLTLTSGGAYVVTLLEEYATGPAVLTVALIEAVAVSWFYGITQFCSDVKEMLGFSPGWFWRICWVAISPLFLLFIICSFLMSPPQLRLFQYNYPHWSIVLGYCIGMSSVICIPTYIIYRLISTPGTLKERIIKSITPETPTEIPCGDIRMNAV
Description: Displacement of [3H]paroxetine from serotonin transporter in Sprague-Dawley rat frontal cortical membrane
Assay [5] has as its target T2, 5-hydroxytryptamine receptor 1A. The assay is described as follows: biochemical.

Chain of Sodium-dependent serotonin transporter (Homo sapiens, UniProt P31645) (P31645 whole entry): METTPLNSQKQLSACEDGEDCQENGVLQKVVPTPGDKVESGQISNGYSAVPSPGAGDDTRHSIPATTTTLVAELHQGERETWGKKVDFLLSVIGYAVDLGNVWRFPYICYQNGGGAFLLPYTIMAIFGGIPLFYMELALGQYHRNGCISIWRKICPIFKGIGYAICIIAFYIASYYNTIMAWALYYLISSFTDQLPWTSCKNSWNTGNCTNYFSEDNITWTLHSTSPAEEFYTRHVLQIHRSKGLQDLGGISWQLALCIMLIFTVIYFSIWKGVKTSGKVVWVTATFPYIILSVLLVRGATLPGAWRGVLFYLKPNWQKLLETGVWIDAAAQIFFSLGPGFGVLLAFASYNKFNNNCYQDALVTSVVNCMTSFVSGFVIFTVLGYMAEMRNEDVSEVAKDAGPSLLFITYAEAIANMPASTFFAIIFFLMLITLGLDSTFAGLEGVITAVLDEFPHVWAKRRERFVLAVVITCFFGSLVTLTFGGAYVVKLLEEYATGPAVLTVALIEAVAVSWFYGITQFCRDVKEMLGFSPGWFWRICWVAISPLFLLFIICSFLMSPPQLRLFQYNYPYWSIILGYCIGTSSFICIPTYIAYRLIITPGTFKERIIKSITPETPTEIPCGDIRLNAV

`O=C(NC1CCCCC1)c1ccc(F)c2c1CC(N(CCCc1c[nH]c3ccc(F)cc13)C1CCC1)CO2` (stereo not drawn): the Activity in assay [1] turned out to be 44%; in the assay listed under Rattus norvegicus it was 21%. In addition, the IC50 in assay [2] was > 1000 nM; in assay [3], 144 nM.

Turning to `O=C(NCC1CC1)c1ccc(F)c2c1CC(N(CCCc1c[nH]c3ccc(F)cc13)C1CCC1)CO2` (stereo not drawn), the results for the IC50 in assay [2] and in assay [3] were > 1000 nM and 43.6 nM, respectively. Besides, the affinity in assay [4], expressed as Ki, was 6.91 nM. Also, the Activity in the assay filed under Rattus norvegicus came out at 31%.

Turning to `CCNC(=O)c1ccc(F)c2c1CC(N(CCCc1c[nH]c3ccc(F)cc13)C1CCC1)CO2` (stereo not drawn), the half-inhibitory concentration (IC50) is > 1000 nM in assay [2] and 27.9 nM in assay [3]. In addition, the inhibition constant Ki in assay [4] came out at 9.47 nM. This compound came in with an Activity in the assay filed under Rattus norvegicus of 12%.

Consider `CC(C)NC(=O)c1ccc(F)c2c1CC(N(CCCc1c[nH]c3ccc(F)cc13)C1CCC1)CO2` (stereo not drawn), for which the concentration for half-maximal inhibition (IC50) in assay [2] was > 2000 nM; in assay [3], 44.7 nM. Also, the Ki in assay [4] came to 11.3 nM. The compound further came in with an Activity in the assay filed under Rattus norvegicus of 4%.

As for `NC(=O)c1ccc(Cl)c2c1CC(N(CCCc1c[nH]c3ccc(F)cc13)C1CCC1)CO2` (stereo in doubt; 35d), the results for the IC50 in assay [2] and in assay [3] were > 1000 nM and 56.5 nM, respectively. In addition, the affinity in assay [4], expressed as Ki, was 3.74 nM.

`NC(=O)c1ccc(Cl)c2c1CC(N(CCCc1c[nH]c3ccc(F)cc13)C1CCC1)CO2` (single isomer, unassigned; (-)): the figures for the 50% inhibitory concentration (IC50) in assay [2] and in assay [3] were 125 nM and 61.4 nM, respectively. Besides, the inhibitory constant (Ki) in assay [5] is 10.9 nM; in assay [4] it was 1.98 nM.

With `COc1ccc2[nH]cc(CCCN(C3CCC3)C3COc4c(F)ccc(C(N)=O)c4C3)c2c1` (stereo not drawn), the 50% inhibitory concentration (IC50) in assay [2] turned out to be 419 nM; in assay [3], 834 nM. The inhibitory constant (Ki) in assay [4] was > 1000 nM.

For `N#Cc1ccc2[nH]cc(CCCN(C3CCC3)C3COc4c(F)ccc(C(N)=O)c4C3)c2c1` (single isomer, unassigned; (+)), the IC50 is 1000 nM in assay [2] and 10.1 nM in assay [3]. In addition, the results for the Ki in assay [5] and in assay [4] were 258 nM and 9.05 nM, respectively.

For the compound `O=C(O)c1ccc(F)c2c1CC(N(CCCc1c[nH]c3ccc(F)cc13)C1CCC1)CO2` (stereo not drawn), the Activity in assay [1] came to 4%; in the assay filed under Rattus norvegicus, 8%. The IC50 was > 2000 nM in assay [2] and 1030 nM in assay [3].

Take `CCCN(CCCc1c[nH]c2ccc(F)cc12)[C@H]1COc2cccc(C(N)=O)c2C1`: the IC50 in assay [3] came out at 146 nM. The results for the Ki in assay [5] and in assay [4] were 0.93 nM and 23.4 nM, respectively. The compound further came in with an Activity in the assay listed under Rattus norvegicus of 31%.

For `N#Cc1ccc2[nH]cc(CCCN(C3CCC3)C3COc4c(F)ccc(C(N)=O)c4C3)c2c1` (single isomer, unassigned; (-)), the IC50 was 195 nM in assay [2] and 24.1 nM in assay [3]. Further, the values for the Ki in assay [5] and in assay [4] were 1.98 nM and 2.44 nM, respectively.

As for `CCCN(CCCc1c[nH]c2ccc(F)cc12)C1COc2c(F)ccc(OC)c2C1` (stereo not drawn), in assay [3], half-maximal inhibition (IC50) required 442 nM. Further, the figures for the Ki in assay [5] and in assay [4] were 19.4 nM and 12.5 nM, respectively.

Regarding `CCCN(CCCc1c[nH]c2ccc(F)cc12)[C@H]1COc2c(F)ccc(C(=O)NC)c2C1`, the concentration for half-maximal inhibition (IC50) in assay [2] is 752 nM; in assay [3], 47 nM. Besides, the results for the inhibitory constant (Ki) in assay [5] and in assay [4] were 2.64 nM and 11.3 nM, respectively. In the assay listed under Rattus norvegicus, this compound showed an Activity of 39%.

Regarding `NC(=O)c1cccc2c1CC(N(CCCc1c[nH]c3ccc(F)cc13)C1CCC1)CO2` (single isomer, unassigned; (-)), the IC50 in assay [2] worked out at 66 nM; in assay [3] it was 109 nM. The Ki in assay [4] was determined as 5.9 nM.

With `CNC(=O)c1ccc(F)c2c1C[C@@H](N(CCCc1c[nH]c3ccc(F)cc13)C1CCC1)CO2`, the IC50 in assay [2] is 262 nM; in assay [3], 147 nM. Further, the results for the Ki in assay [5] and in assay [4] were 1.32 nM and 10.2 nM, respectively. The Activity in the assay listed under Rattus norvegicus came out at 0%.
